≈ marks a conversion by molar mass, not a printed value. Read-outs that look alike come from different tables or passages of the source.
What was measured:
PI3Kδ = PI3Kδ (Homo sapiens, UniProt O00329); assay: Kinase activity assay; type: biochemical; details: listed = inhibited more than 60%
Method: (§1) • Kinase-Glo(Plus)/ADP-Gloassay buffer 25 mMHEPES, 10 mMMgCl2, 0.01% Triton X-100, 100 μg/mLBSA, 2.5 mMDTT, pH7.4. • Caliper assay buffer 100 mMHEPES, 10 mMMgCl2, 100 μl/L Brij35 (30%), 1 mMDTT, pH7.4. Assay Substrates • MBP protein, UnactiveMEK1, Rbprotein were purchased from SignalChem. Poly(glu:tyr)(4:1) was purchased from Sigma. PIP2 was purchased from Cayman. Peptide substrates were synthesized in HD Biosciences, China. ATP was purchased from Sigma. KinaseGloPlus reagent, KinaseGloreagent and ADP Gloreagent were purchased from Promega Assay Procedure—Caliper Format
(§2) Mix Kinases, substrate, ATP and compound in 96-well assay plate, total volume is 50 μL. Incubate assay plate at 30° C. for 1 hour. Stop reaction by adding 20 μL of 35 mM EDTA and transfer 26 μL stopped reaction to 384-well assay plate. Read the assay plate on the plate reader.
(§3) Mix Kinases, substrate, ATP and compound in 384-well assay plate, total volume is 10 μl. Incubate assay plate at 30° C. for 1 hour. Add 10 μl/well of ADP GloReagent to the assay plate, incubate at 27° C. for 40 min.
(§4) Add 20 μl/well Detection Reagent to the assay plate, incubate at 27° C. for 30 min. Read the assay plate on the plate reader
(§5) Mix Kinase, substrate, ATP and compound in 384-well assay plate, total volume is 10 μl. Incubate assay plate at 30° C. for 1 hour. Add 10 μl/well KinaseGlo(Plus) reagent to the reaction mixture, and then incubate at 27° C. for 20 min. Read the assay plate on plate reader. • Hundred percent effect was performed without compound and enzyme, but containing ATP and substrate. • Zero percent effect was carried out without compound, but containing ATP, substrate and enzyme. • SB202190 is reference compounds for kinase p38β; Staurosporine(STSP) is reference compound for the remaining kinases. Results

PI3Kβ = PI3Kβ (Homo sapiens, UniProt P42338); assay: Kinase activity assay; type: biochemical; details: listed = inhibited more than 60%
Method: as §1, §2, §3, §4, §5

TrkA = TrkA (Homo sapiens, UniProt P04629); assay: Kinase activity assay; type: biochemical; details: listed = inhibited more than 60%
Sequence of TrkA (P04629 33-796, species assumed): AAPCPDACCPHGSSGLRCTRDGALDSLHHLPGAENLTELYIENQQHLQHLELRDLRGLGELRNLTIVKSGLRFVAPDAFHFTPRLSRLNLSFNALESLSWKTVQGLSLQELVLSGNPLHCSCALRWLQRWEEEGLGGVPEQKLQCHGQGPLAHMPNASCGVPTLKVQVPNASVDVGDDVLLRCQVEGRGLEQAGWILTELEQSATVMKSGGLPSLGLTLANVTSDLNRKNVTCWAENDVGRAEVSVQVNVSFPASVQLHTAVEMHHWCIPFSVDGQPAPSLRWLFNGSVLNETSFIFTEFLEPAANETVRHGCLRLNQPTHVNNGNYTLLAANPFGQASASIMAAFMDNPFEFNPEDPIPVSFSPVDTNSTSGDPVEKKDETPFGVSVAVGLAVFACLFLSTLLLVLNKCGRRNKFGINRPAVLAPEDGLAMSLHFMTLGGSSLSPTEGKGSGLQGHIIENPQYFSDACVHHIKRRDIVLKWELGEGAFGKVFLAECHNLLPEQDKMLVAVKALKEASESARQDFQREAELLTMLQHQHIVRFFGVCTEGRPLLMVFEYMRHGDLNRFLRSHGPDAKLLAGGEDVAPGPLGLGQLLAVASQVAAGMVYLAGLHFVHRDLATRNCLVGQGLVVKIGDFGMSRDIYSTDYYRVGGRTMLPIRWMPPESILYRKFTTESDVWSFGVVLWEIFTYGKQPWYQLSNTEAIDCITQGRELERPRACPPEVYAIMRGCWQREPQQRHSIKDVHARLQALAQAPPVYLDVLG
Method: as §1, §2, §3, §4, §5

PI3Kγ = PI3Kγ (Homo sapiens, UniProt P48736); assay: Kinase activity assay; type: biochemical; details: listed = inhibited more than 60%
Sequence of PI3Kγ (P48736 whole entry, species assumed): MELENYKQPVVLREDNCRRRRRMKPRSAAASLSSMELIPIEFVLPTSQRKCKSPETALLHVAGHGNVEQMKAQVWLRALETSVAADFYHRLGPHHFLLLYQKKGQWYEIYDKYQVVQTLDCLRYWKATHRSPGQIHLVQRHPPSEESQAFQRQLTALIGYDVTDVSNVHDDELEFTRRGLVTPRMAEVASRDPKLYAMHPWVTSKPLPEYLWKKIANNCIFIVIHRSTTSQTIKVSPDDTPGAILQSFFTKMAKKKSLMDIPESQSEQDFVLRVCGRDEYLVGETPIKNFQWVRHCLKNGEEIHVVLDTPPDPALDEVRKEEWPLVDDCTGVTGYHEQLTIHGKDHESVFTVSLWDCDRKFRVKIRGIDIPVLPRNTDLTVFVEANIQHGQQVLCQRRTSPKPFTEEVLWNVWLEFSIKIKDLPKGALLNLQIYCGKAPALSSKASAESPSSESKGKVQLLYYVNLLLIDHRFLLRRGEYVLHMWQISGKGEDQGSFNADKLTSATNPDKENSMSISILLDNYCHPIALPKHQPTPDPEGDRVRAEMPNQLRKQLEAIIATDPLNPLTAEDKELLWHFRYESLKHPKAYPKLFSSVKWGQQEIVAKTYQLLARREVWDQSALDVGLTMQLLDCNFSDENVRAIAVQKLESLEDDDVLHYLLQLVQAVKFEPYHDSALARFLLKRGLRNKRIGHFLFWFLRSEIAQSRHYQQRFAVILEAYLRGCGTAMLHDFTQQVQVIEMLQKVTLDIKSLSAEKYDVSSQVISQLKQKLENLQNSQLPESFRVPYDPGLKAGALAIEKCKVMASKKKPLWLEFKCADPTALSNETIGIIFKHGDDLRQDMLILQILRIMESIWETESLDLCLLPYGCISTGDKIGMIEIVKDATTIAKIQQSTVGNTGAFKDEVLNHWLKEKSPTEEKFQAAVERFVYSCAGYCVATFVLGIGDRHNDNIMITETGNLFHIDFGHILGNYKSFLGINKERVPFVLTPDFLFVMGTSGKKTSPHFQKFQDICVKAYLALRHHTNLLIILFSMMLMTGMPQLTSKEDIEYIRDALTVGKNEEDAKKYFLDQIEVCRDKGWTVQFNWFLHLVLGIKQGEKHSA
Method: as §1, §2, §3, §4, §5

Escherichia coli = assay: MIC screening, broth microdilution (CLSI)
Method: (§6) The minimum inhibition concentration (MIC) screening was performed with 14 bacterial strains and 4 compounds. The MICs were determined by the broth microdilution method according to the Clinical and Laboratory Standards Institute (CLSI) guidelines. The MIC screening was performed on 96-well plates containing the compounds in serial 2-fold dilutions from 64 to 0.06 μg/ml. The bacterial inoculations were prepared in cation-adjusted Mueller Hinton medium broth from cultures grown on appropriate agar plates which are prepared freshly every week. The growth controls and sterile controls were included in each assay plates. The assay plates were incubated in an ambient-air incubator at 35±2° C. for 16-20 hr (24 hr for MRSA), and bacterial growth was observed and recorded.
(§7) Compound stock solutions were prepared in 100% DMSO on the day of MIC screening and use immediately. Compound stock concentration=[(highest testing concentration)×103 μl/3 μl] (e.g. if the required highest testing concentration is 64 μg/ml in assay plates, stock concentration=64×103/3=2.2 mg/ml). The potency of testing compound is assumed as 100% unless otherwise stated whereas the potency of reference compound is calculated according to manufacturer's analysis data.
(§8) Eleven two-fold dilutions per compound were made then transferred 3 μl to each well of test plate. Final concentration of DMSO in the MIC screening is ˜3%.
(§9) B. Transfer colonies from fresh culture plates into 5 ml of saline with sterile loops and mix well. Measure and adjust turbidity to 0.5 McFarland barium sulphate standard using a turbidity meter. Alternatively, transfer 1-2 colonies into 500 μl of saline and adjust OD625 to ˜0.1 using a plate reader. […] Dilute bacterial inoculum 1:280 for Gram-positive and fastidious strains and 1:400 for Gram-negative strains into corresponding medium broth (CAMHB, CAMHB+3% lysed horse blood, HTM) (e.g. 35.6 μl of inoculum into 10 ml of CAMHB or 25 μl of inoculum into 10 ml of CAMHB). H. influenzae: HTM Streptococci: CAMHB+3% lysed horse blood Other strains in the panel: CAMHB 2.4. Prepare Assay Plates A. Add 100 μl of the bacterial inoculum to each well of the compound plates except wells B12, D12, F12 and H12. B. Add 100 μl of medium broth to wells B12, D12, F12 and H12 of the compound plates. […] Stack four plates together and cover with a sterile plate lid. Incubate in an ambient-air incubator at 35±2° C. for 16-20 hours (24 hours for MRSA). […] Perform Colony Counts A. Dilute the bacterial inoculum (0.5 McFarland) to a serial of 10-1 to 10-7 in saline solution (e.g. 100 μl bacterial inoculum+900 μl of saline). B. Spread 100 μl of each dilution (10-4, 10-5, 10-6, and 10-7) onto CAMHA plates in triplication, let the liquid soak into the agar for 10 minutes, invert the agar plates and incubate for 24 hr at 35±2° C. […] Record MICs and Calculate CFUs A. Open the compound plate layout in the compound management system, and check the assay plate barcode. B. Place the assay plate on the top of MIC reader, and adjust the magnification mirror to read each wells, record growth status as raw data. (Optional) Record photo image of each assay plates using high-speed high-resolution scanner. […] Determine MIC break points according to CLSI guideline. D. Count colonies and calculate CFU of bacterial inoculum.

MRSA = assay: MIC screening, broth microdilution (CLSI)
Method: The MICs were determined by the broth microdilution method according to the Clinical and Laboratory Standards Institute (CLSI) guidelines. The MIC screening was performed on 96-well plates containing the compounds in serial 2-fold dilutions from 64 to 0.06 μg/ml. The bacterial inoculations were prepared in cation-adjusted Mueller Hinton medium broth from cultures grown on appropriate agar plates which are prepared freshly every week. The growth controls and sterile controls were included in each assay plates. The assay plates were incubated in an ambient-air incubator at 35±2° C. for 16-20 hr (24 hr for MRSA), and bacterial growth was observed and recorded.
(§10) A. Revive bacterial strains from storage frozen (−80° C.) two days before the MIC screening. Streak onto surface of appropriate agar plates, and incubate the plates for 20-24 hr at 35±2° C. in an appropriate atmosphere.
(§11) B. Select 5-10 well-isolated colonies of similar morphology and restreak onto fresh agar plates using sterile loops. Incubate the plates for 20-24 hr at 35±2° C. in an appropriate atmosphere as above.
as §7, §8, §9

Klebsiella pneumoniae = assay: MIC screening, broth microdilution (CLSI)
Method: as §6, §7, §8, §9

Staphylococcus aureus = assay: MIC screening, broth microdilution (CLSI)
Method: as §6, §7, §8, §9

Pseudomonas aeruginosa = assay: MIC screening, broth microdilution (CLSI)
Method: as §6, §7, §8, §9

[1] = test system: Acinetobacter calcoaceticus; assay: MIC screening, broth microdilution (CLSI)
Method: as §6, §7, §8, §9

Streptococci = assay: MIC screening, broth microdilution (CLSI)
Method: as §6, §10
Streptococci: TSA II, 5% CO2
as §11, §7, §8, §9

[2] = Calculated Log partition coefficients (Log P)
Haemophilus influenzae = assay: MIC screening, broth microdilution (CLSI)
Method: as §6, §10
Haemophilus influenzae: chocolate agar, 5% CO2
as §11, §7, §8, §9

Enterococci = assay: MIC screening, broth microdilution (CLSI)
Method: as §6, §10
Enterococci: TSA II, ambient air
as §11, §7, §8
B. Transfer colonies from fresh culture plates into 5 ml of saline with sterile loops and mix well. Measure and adjust turbidity to 0.5 McFarland barium sulphate standard using a turbidity meter. Alternatively, transfer 1-2 colonies into 500 μl of saline and adjust OD625 to ˜0.1 using a plate reader. C. Dilute bacterial inoculum 1:280 for Gram-positive and fastidious strains and 1:400 for Gram-negative strains into corresponding medium broth (CAMHB, CAMHB+3% lysed horse blood, HTM) (e.g. 35.6 μl of inoculum into 10 ml of CAMHB or 25 μl of inoculum into 10 ml of CAMHB). H. influenzae: HTM Streptococci: CAMHB+3% lysed horse blood Other strains in the panel: CAMHB 2.4. Prepare Assay Plates A. Add 100 μl of the bacterial inoculum to each well of the compound plates except wells B12, D12, F12 and H12. B. Add 100 μl of medium broth to wells B12, D12, F12 and H12 of the compound plates. C. Stack four plates together and cover with a sterile plate lid. Incubate in an ambient-air incubator at 35±2° C. for 16-20 hours (24 hours for MRSA). […] Perform Colony Counts A. Dilute the bacterial inoculum (0.5 McFarland) to a serial of 10-1 to 10-7 in saline solution (e.g. 100 μl bacterial inoculum+900 μl of saline). B. Spread 100 μl of each dilution (10-4, 10-5, 10-6, and 10-7) onto CAMHA plates in triplication, let the liquid soak into the agar for 10 minutes, invert the agar plates and incubate for 24 hr at 35±2° C. […] Record MICs and Calculate CFUs A. Open the compound plate layout in the compound management system, and check the assay plate barcode. B. Place the assay plate on the top of MIC reader, and adjust the magnification mirror to read each wells, record growth status as raw data. (Optional) Record photo image of each assay plates using high-speed high-resolution scanner. C. Determine MIC break points according to CLSI guideline. D. Count colonies and calculate CFU of bacterial inoculum.

PI3Kα = PI3Kα (Homo sapiens, UniProt P42336); assay: Kinase activity assay; type: biochemical; details: listed = inhibited more than 60%
Sequence of PI3Kα (P42336 whole entry, species assumed): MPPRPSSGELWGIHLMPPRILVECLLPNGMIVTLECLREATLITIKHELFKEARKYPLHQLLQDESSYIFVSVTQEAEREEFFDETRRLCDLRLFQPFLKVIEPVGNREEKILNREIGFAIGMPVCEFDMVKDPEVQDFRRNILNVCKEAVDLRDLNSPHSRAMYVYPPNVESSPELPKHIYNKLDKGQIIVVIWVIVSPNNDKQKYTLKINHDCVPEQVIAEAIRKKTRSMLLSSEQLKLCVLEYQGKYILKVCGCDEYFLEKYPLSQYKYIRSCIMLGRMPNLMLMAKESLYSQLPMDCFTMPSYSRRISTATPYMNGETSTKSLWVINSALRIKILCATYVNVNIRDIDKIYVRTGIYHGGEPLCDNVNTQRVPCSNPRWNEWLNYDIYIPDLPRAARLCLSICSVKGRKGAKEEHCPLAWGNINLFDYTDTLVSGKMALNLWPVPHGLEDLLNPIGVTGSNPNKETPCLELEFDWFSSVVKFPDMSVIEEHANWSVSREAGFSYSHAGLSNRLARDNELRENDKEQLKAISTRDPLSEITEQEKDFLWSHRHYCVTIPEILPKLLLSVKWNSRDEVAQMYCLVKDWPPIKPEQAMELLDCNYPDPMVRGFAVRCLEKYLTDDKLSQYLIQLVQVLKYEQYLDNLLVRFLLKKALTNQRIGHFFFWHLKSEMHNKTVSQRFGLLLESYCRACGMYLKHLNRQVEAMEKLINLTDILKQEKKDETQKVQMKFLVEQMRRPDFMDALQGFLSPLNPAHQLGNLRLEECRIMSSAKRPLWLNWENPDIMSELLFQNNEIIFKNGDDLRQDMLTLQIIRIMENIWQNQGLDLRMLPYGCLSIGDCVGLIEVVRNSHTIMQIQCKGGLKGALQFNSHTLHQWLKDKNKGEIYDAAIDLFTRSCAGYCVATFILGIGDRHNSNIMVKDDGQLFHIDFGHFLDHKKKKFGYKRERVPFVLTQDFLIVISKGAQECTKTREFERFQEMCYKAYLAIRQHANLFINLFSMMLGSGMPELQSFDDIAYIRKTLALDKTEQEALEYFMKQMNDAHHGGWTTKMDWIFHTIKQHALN
Sequence of PI3Kα (P27986 whole entry partner, species assumed): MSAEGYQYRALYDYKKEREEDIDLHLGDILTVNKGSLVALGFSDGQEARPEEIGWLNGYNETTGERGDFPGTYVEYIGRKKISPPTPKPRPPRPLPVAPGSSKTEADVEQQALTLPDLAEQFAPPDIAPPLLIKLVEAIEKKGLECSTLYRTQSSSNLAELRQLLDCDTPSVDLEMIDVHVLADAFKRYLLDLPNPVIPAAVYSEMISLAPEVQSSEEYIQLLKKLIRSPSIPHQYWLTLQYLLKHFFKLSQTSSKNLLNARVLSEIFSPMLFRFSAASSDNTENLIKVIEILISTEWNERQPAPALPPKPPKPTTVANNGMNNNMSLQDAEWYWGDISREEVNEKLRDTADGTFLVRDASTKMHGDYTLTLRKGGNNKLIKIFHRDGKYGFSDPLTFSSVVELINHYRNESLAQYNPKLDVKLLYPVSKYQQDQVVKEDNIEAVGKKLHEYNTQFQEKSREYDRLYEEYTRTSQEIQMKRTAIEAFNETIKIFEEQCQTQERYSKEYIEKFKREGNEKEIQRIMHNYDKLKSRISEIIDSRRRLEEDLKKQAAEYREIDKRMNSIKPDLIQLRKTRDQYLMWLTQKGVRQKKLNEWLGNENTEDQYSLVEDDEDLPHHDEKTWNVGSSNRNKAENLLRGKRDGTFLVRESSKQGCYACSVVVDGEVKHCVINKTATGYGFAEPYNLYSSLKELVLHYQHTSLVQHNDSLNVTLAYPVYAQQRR
Method: as §1, §2, §3, §4, §5

CDK2/CyclinA2 = CDK2/CyclinA2 (Homo sapiens, UniProt P24941); assay: Kinase activity assay; type: biochemical; details: listed = inhibited more than 60%
Method: as §1, §2, §3, §4, §5

FLT3 = FLT3 (Homo sapiens, UniProt P36888); assay: Kinase activity assay; type: biochemical; details: listed = inhibited more than 60%
Method: as §1, §2, §3, §4, §5

human tumor cell lines = assay: NCI in vitro cancer screen, whole panel (summary statements); type: cell-based
BT-549 = assay: NCI in vitro cancer screen, Breast Cancer; type: cell-based, human; details: for GI50 / CC50: Homo sapiens; for CC50: read-out: LC50 (the source's name)
[3] = Staphylococcus aureus (ATCC 43300), Exp 2
[4] = Staphylococcus aureus (MRSA, Erythromycin & clindamycin-resistant), Exp 2
[5] = Staphylococcus aureus, ATCC43300 / MRSA
[6] = ATCC29213, Staphylococcus aureus (ATCC 29213), Exp 1
[7] = ATCC29213, Staphylococcus aureus (ATCC 29213), Exp 2
[8] = Staphylococcus aureus (Levofloxacin-resistant), Exp 1
[9] = Staphylococcus aureus (Levofloxacin-resistant), Exp 2
[10] = Streptococcus pneumoniae, ATCC49619, Streptococcus pneumoniae (ATCC 49619), Exp 1
[11] = Streptococcus pneumoniae, ATCC49619, Streptococcus pneumoniae (ATCC 49619), Exp 2
[12] = Streptococcus pneumoniae, Streptococcus pneumoniae (Erythromycin-resistant), Exp 1
[13] = Streptococcus pneumoniae, Streptococcus pneumoniae (Erythromycin-resistant), Exp 2
[14] = Streptococcus pyogenes, ATCC700942, Streptococcus pyogenes (ATCC 700942), Exp 1
[15] = Streptococcus pyogenes, ATCC700942, Streptococcus pyogenes (ATCC 700942), Exp 2
[16] = Enterococcus faecalis, ATCC29212, Enterococcus faecalis (ATCC 29212), Exp 1
[17] = Enterococcus faecalis, ATCC29212, Enterococcus faecalis (ATCC 29212), Exp 2
[18] = Enterococcus faecium, ATCC700221, Enterococcus faecium (ATCC 700221), Exp 1
[19] = Enterococcus faecium, ATCC700221, Enterococcus faecium (ATCC 700221), Exp 2

Sequence of PI3Kδ (O00329 whole entry, species assumed): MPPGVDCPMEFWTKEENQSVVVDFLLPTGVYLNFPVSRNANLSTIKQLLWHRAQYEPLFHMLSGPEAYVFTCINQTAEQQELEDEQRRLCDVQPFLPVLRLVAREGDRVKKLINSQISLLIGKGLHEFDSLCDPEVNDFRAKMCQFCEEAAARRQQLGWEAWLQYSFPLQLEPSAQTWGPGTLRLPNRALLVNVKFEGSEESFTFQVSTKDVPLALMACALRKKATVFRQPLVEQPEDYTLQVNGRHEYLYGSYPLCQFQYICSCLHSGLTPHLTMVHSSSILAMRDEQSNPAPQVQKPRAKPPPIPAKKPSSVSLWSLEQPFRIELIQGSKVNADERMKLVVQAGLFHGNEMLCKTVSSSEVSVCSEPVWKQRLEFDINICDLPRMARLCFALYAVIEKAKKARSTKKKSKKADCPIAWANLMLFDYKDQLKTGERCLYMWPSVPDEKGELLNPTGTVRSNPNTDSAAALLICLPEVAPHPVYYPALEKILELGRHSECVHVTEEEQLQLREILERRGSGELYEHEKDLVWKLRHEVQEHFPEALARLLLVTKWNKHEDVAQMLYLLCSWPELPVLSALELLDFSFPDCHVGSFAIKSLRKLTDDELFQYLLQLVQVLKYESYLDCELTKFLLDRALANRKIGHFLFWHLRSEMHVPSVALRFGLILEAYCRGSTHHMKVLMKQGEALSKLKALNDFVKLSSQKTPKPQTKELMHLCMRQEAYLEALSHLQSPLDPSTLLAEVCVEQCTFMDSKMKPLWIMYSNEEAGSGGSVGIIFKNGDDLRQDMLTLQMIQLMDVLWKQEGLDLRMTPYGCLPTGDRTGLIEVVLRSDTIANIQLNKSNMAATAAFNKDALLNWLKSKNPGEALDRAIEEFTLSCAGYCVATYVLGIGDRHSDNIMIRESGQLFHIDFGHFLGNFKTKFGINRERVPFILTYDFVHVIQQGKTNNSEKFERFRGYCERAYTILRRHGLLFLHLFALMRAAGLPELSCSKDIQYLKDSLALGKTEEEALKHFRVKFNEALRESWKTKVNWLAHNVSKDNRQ
Sequence of PI3Kδ (P27986 whole entry partner, species assumed): as the sequence (P27986 whole entry partner, species assumed) above

Structure (SMILES)	Kinases that inhibited more than 60% (PI3Kδ)	Kinases that inhibited more than 60% (PI3Kβ)	Kinases that inhibited more than 60% (TrkA)	Kinases that inhibited more than 60% (PI3Kγ)	MIC (Escherichia coli; Exp 1)	MIC (Escherichia coli; Exp 2)	MIC (MRSA; [3])	MIC (MRSA; [4])	MIC (MRSA; [5])	MIC (MRSA; Staphylococcus aureus, MRSA)	MIC (Klebsiella pneumoniae)	MIC (Klebsiella pneumoniae; Exp 2)	MIC (Staphylococcus aureus; [6])	MIC (Staphylococcus aureus; [7])	MIC (Staphylococcus aureus; [8])	MIC (Staphylococcus aureus; [9])	MIC (Pseudomonas aeruginosa)	MIC (Pseudomonas aeruginosa; Exp 2)	MIC [1]	MIC ([1]; Exp 2)	further results
COc1cc(/C=C/c2cc(O)cc(OCC=C(C)C)c2)ccc1O [USYDS2, (E)-3-(3-methyl-2-butenyloxy)-4′,5-dihydroxy-3′-methoxystilbene]	PI3Kδ	PI3Kβ	TrkA	PI3Kγ	64 µg/mL (≈ 196 µM)	32 µg/mL (≈ 98 µM)	16 µg/mL (≈ 49 µM)	16 µg/mL (≈ 49 µM)	16 µg/mL (≈ 49 µM)	16 µg/mL (≈ 49 µM)	> 64 µg/mL	>64 µg/mL	32 µg/mL (≈ 98 µM)	16 µg/mL (≈ 49 µM)	16 µg/mL (≈ 49 µM)	16 µg/mL (≈ 49 µM)	> 64 µg/mL	>64 µg/mL	> 64 µg/mL	>64 µg/mL	MIC (Streptococci; [10]): 32 µg/mL (≈ 98 µM); MIC (Streptococci; [11]): 32 µg/mL (≈ 98 µM); MIC (Streptococci; [12]): 32 µg/mL (≈ 98 µM); MIC (Streptococci; [13]): 64 µg/mL (≈ 196 µM); MIC (Streptococci; [14]): 64 µg/mL (≈ 196 µM); MIC (Streptococci; [15]): 64 µg/mL (≈ 196 µM); Log P relative to resveratrol [2]: almost twice that of the hydroxystilbene resveratrol; MIC (Haemophilus influenzae): 32 µg/mL (≈ 98 µM); MIC (Haemophilus influenzae; Exp 2): 32 µg/mL (≈ 98 µM); MIC (Enterococci; [16]): 32 µg/mL (≈ 98 µM); MIC (Enterococci; [17]): 32 µg/mL (≈ 98 µM); MIC (Enterococci; [18]): 32 µg/mL (≈ 98 µM); MIC (Enterococci; [19]): 32 µg/mL (≈ 98 µM)
COc1cc(/C=C/c2cc(O)cc(O)c2CC=C(C)C)ccc1O [USYDS10, (E)-2-(3-methyl-2-buten-1-yl)-3,4′,5-trihydroxy-3′-methoxystilbene]	PI3Kδ	PI3Kβ	TrkA	PI3Kγ																	Kinases that inhibited more than 60% (PI3Kα): PI3Kα; Kinases that inhibited more than 60% (CDK2/CyclinA2): CDK2/CyclinA2; Kinases that inhibited more than 60% (FLT3): FLT3; inhibition of cancerous cell growth (human tumor cell lines; result in words): structure dependent inhibition of cancerous cell growth; TGI (BT-549; BT-549, unit not printed (M)): 1.90E−5; GI50 (BT-549; BT-549, unit not printed (M)): 0.798 µM; CC50 (BT-549; BT-549, unit not printed (M)): 49.3 µM
COc1cc(/C=C/c2cc(O)cc(OC)c2CC=C(C)C)ccc1O [USYDS1, (E)-2-(3-methyl-2-buten-1-yl)-4′,5-dihydroxy-3,3′-dimethoxystilbene]	PI3Kδ		TrkA	PI3Kγ	16 µg/mL (≈ 47 µM)	16 µg/mL (≈ 47 µM)	8 µg/mL (≈ 23.5 µM)	8 µg/mL (≈ 23.5 µM)	8 µg/mL (≈ 23.5 µM)	8 µg/mL (≈ 23.5 µM)	> 64 µg/mL	>64 µg/mL	16 µg/mL (≈ 47 µM)	8 µg/mL (≈ 23.5 µM)	8 µg/mL (≈ 23.5 µM)	8 µg/mL (≈ 23.5 µM)	> 64 µg/mL	>64 µg/mL	> 64 µg/mL	>64 µg/mL	Kinases that inhibited more than 60% (PI3Kα): PI3Kα; Kinases that inhibited more than 60% (CDK2/CyclinA2): CDK2/CyclinA2; Kinases that inhibited more than 60% (FLT3): FLT3; MIC (Streptococci; [10]): 32 µg/mL (≈ 94 µM); MIC (Streptococci; [11]): 32 µg/mL (≈ 94 µM); MIC (Streptococci; [12]): 32 µg/mL (≈ 94 µM); MIC (Streptococci; [13]): 32 µg/mL (≈ 94 µM); MIC (Streptococci; [14]): 64 µg/mL (≈ 188 µM); MIC (Streptococci; [15]): 64 µg/mL (≈ 188 µM); Log P relative to resveratrol [2]: almost twice that of the hydroxystilbene resveratrol; MIC (Haemophilus influenzae): 32 µg/mL (≈ 94 µM); MIC (Haemophilus influenzae; Exp 2): 32 µg/mL (≈ 94 µM); GI50 (human tumor cell lines; Homo sapiens, range over almost all types of tumor cells): 0.02 to 5 µM; fold more potent than piceatannol (human tumor cell lines; inhibition of proliferation of almost all types of tumor cells): approximately 250 fold; order of potency in the inhibition of cancerous cell growth (human tumor cell lines; result in words): most potent activity; MIC (Enterococci; [16]): 16 µg/mL (≈ 47 µM); MIC (Enterococci; [17]): 16 µg/mL (≈ 47 µM); MIC (Enterococci; [18]): 8 µg/mL (≈ 23.5 µM); MIC (Enterococci; [19]): 16 µg/mL (≈ 47 µM)
CC(C)=CCOc1cc(O)cc(/C=C/c2ccc(O)c(O)c2)c1CC=C(C)C [USYDS14, (E)-2-(3-methyl-2-buten-1-yl)-3-(3-methyl-2-butenyloxy)-3′,4′,5-trihydroxystilbene]																					inhibition of cancerous cell growth (human tumor cell lines; result in words): structure dependent inhibition of cancerous cell growth; TGI (BT-549; BT-549, Breast Cancer): 1.63e-05 M; GI50 (BT-549; BT-549, Breast Cancer): 4.27 µM; CC50 (BT-549; BT-549, Breast Cancer): 46.9 µM
